Laboratory results published in BindingDB's records for PubMed 11082457 (Centre De Recherches De Croissy, 2000).
“And” between values parts separate entries of the source, which are not always exact repeats. Identical values can stand only once.

Legend:
[1] = biological target: T1, Alpha-1B adrenergic receptor (Rattus norvegicus, UniProt P15823)
T1 sequence (P15823 whole entry): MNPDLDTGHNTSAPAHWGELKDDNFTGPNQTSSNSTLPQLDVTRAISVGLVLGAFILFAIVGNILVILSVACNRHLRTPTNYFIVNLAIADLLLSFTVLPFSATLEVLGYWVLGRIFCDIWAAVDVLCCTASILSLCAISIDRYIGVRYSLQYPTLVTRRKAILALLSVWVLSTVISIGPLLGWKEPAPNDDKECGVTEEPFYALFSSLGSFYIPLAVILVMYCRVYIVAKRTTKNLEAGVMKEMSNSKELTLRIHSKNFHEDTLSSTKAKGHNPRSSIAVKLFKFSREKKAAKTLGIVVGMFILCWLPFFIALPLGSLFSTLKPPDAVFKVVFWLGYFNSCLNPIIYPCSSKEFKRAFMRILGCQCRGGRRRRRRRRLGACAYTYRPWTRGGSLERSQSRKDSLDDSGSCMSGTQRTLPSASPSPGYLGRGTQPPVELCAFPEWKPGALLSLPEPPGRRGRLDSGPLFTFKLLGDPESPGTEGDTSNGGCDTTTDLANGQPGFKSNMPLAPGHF

[2] = biological target: Beta-2 adrenergic receptor (Homo sapiens, UniProt P07550)
[3] = biological target: T2, Alpha-2A adrenergic receptor [16-465] (Rattus norvegicus, UniProt P22909)
T2 construct: 16-465
T2 sequence (P22909 whole entry): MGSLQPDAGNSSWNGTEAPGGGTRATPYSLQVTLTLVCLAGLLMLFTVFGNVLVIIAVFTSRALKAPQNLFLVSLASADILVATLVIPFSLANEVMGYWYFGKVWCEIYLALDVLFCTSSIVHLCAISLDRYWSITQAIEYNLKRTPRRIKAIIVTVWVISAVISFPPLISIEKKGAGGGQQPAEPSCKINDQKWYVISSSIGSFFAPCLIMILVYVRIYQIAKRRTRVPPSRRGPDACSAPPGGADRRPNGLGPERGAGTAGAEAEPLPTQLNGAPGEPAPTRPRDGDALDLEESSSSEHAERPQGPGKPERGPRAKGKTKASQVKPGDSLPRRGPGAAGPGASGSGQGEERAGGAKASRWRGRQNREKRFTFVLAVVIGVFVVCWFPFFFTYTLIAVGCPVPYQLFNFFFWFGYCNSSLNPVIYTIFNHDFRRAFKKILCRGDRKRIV

[4] = biological target: T3, Alpha-2A adrenergic receptor (Homo sapiens, UniProt P08913)
T3 sequence (P08913 whole entry): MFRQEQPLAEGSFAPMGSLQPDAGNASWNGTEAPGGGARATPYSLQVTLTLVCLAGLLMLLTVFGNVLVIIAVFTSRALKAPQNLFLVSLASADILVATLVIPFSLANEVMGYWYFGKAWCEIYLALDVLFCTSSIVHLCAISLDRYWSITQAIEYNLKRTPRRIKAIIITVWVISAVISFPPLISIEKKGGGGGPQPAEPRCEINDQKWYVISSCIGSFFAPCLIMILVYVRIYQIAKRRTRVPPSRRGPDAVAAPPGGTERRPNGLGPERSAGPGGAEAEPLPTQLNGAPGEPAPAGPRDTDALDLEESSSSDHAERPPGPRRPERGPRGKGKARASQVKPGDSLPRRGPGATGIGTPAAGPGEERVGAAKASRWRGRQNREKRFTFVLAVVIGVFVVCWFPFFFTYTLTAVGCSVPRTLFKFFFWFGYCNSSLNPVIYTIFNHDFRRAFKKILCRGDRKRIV

[5] = biological target: T4, Alpha-2C adrenergic receptor (Rattus norvegicus, UniProt P22086)
T4 sequence (P22086 whole entry): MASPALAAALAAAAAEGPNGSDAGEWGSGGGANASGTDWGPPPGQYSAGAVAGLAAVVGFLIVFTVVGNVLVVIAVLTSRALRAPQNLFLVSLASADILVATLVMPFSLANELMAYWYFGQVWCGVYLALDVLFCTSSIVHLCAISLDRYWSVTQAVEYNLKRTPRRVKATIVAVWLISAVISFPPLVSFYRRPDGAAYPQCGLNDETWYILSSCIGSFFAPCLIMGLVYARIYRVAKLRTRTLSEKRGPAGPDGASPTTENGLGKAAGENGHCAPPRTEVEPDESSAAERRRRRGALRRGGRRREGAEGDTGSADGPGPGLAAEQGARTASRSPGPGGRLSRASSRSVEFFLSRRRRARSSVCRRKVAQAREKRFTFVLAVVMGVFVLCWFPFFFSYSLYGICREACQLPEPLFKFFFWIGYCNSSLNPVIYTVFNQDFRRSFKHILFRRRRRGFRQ

[6] = biological target: Beta-1 adrenergic receptor (Homo sapiens, UniProt P08588)
[7] = biological target: T5, Alpha-2C adrenergic receptor (Homo sapiens, UniProt P18825)
T5 sequence (P18825 whole entry): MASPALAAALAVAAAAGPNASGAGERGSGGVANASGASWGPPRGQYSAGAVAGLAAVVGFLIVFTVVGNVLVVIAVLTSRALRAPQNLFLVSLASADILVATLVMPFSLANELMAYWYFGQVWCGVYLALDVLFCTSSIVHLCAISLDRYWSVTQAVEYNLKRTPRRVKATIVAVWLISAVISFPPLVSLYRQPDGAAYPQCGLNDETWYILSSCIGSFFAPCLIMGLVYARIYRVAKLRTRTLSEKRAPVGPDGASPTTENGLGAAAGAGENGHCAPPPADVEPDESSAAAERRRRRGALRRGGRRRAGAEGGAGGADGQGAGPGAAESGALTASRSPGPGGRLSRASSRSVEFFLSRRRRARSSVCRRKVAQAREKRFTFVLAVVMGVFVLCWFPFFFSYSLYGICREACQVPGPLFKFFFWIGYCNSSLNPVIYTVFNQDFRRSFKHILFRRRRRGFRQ

Sequence of Beta-2 adrenergic receptor (P07550 whole entry): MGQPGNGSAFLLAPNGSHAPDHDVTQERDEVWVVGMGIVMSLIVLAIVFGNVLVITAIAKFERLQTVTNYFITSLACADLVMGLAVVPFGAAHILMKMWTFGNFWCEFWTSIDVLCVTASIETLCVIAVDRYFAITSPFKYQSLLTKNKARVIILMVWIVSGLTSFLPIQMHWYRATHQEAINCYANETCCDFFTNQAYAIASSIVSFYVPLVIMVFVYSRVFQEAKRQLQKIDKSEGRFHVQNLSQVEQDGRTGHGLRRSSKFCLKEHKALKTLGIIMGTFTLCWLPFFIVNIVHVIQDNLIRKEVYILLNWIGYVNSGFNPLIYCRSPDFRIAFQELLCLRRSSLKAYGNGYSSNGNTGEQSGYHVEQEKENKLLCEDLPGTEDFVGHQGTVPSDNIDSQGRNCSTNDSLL
Sequence of Beta-1 adrenergic receptor (P08588 whole entry): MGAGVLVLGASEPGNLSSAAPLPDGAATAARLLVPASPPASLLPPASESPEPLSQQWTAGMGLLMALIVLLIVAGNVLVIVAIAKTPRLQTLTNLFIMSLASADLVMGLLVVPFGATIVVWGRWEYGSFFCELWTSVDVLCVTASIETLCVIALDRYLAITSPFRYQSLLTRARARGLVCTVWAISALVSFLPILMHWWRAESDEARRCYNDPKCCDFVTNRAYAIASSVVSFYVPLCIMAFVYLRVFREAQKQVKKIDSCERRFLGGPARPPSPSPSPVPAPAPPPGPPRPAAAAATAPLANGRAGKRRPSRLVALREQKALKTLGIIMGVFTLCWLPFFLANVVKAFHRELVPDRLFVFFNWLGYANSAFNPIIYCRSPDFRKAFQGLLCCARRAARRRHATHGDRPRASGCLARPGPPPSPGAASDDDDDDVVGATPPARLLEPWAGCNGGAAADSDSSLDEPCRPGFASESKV

Structure (SMILES)	Ki [1] [nM]	Ki [2] [nM]	Ki [3] [nM]	Ki [4]	Ki [5] [nM]	Ki [6] [nM]	Ki [7]
NC1=NC2(CCc3ccccc3C2)CO1 (centres undefined) [S18616]	100	1000	0.251	0.562 nM and 0.631 nM and 0.316 nM	0.159	1000	
Cc1cccc([C@@H](C)c2cnc[nH]2)c1C	316				1		15.1 nM and 2.51 nM
